Reference: patent publication US7615534B2, “Antimicrobial peptides and use thereof” (Toagosei Co., Ltd, priority 2005, dated 2009)
Where no end group is shown, it is not given here.

Tested on: Staphylococcus aureus IFO 12732
Format: cell-based
Settings: for Antimicrobial Activities (MIC) S. aureus (24 hours later): 37° C., turbidity 24 hours later, diluents approximately 50 μM to approximately 0.39 μM, approximately 1×10^6 cells/mL
Protocol: Regarding the antimicrobial peptide in each of samples 1 to 14, the antimicrobial activities (minimum inhibitory concentration: MIC) with respect to gram-positive bacteria (Staphylococcus aureus IFO 12732) were determined, as described below, by a liquid medium dilution technique using a 96-well microplate. Staphylococcus aureus bacteria are inoculated from a preservation medium to an agar plate medium (“Muller Hinton Agar” manufactured by DIFCO), and thereafter stationary cultured for 18 hours at 37° C. Cultured bacteria were scratched twice using a disposable loop, and gathered bacteria were suspended in 5 mL of physiological saline. The OD660 value of the bacterial suspension derived from diluting the suspension 10 times with physiological saline was determined. The bacterial suspension used in the following tests was prepared by utilizing physiological saline, such that its OD660 value was 0.1 (therefore, bacteria concentration: approximately 2×10^7 cells/mL).
Each peptide sample derived by the above-described method was dissolved with sterile distilled water, which served as a carrier in the present example, to prepare a drug of predetermined concentration. More specifically, an appropriate amount of peptide sample were added into an Eppendorf (registered trademark) tube with an appropriate capacity, and such peptide sample were dissolved with sterile distilled water to prepare 2 mM of drug (peptide solution). The derived drug was appropriately diluted, and each diluent of approximately 50 μM to approximately 0.39 μM was prepared. Thereafter, each diluent was respectively introduced into the well of a polystyrene 96-round-bottom-well microplate prepared in advance. Next, 5 μL of the bacterial suspension having 0.1 OD660 was added (test bacteria quantity: approximately 1×10^6 cells/mL) respectively to each well containing the diluent of each concentration. The microplate was then incubated in an incubator at 37° C., and the presence of bacteria was evaluated based on the turbidity 24 hours later. The minimum drug concentration (peptide concentration), in which an increased in turbidity caused by bacteria was not detected at the time of measurement, was defined as MIC (unit: μM) in the present example.

Row | Molecule | Antimicrobial Activities (MIC) S. aureus (24 hours later) | antimicrobial activity (in words) (summary of Table 2)
1 | CC[C@H](C)[C@H](NC(=O)[C@H](CC(C)C)NC(=O)[C@H](CCCNC(=N)N)NC(=O)[C@@H](N)C(C)C)C(=O)N[C@@H](CCCCN)C(=O)N[C@@H](CC(C)C)C(=O)N[C@@H](CC(C)C)C(=O)N[C@@H](Cc1ccc(O)cc1)C(=O)N[C@@H](CCC(N)=O)C(N)=O [Sample 1, VRLLKLLYQ] | 50 µM | 
2 | CC[C@H](C)[C@H](NC(=O)[C@H](CC(C)C)NC(=O)[C@H](CCCNC(=N)N)NC(=O)[C@@H](NC(=O)[C@@H](NC(=O)[C@H](CCCNC(=N)N)NC(=O)[C@@H](NC(=O)[C@H](CC(C)C)NC(=O)[C@H](CCC(=O)O)NC(=O)[C@@H](N)CCC(=O)O)[C@@H](C)CC)[C@@H](C)O)C(C)C)C(=O)N[C@@H](CCCCN)C(=O)N[C@@H](CC(C)C)C(=O)N[C@@H](CC(C)C)C(=O)N[C@@H](Cc1ccc(O)cc1)C(=O)N[C@@H](CCC(N)=O)C(N)=O [Sample 10, EELIRTVRLIKLLYQ] | 25 µM | 
3 | EDLLKAVRLIKFLYQ-NH2 [Sample 9, EDLLKAVRLIKFLYQ] | 25 µM | 
4 | EDLLRTVRLIKVLYQ-NH2 [Sample 13, EDLLRTVRLIKVLYQ] | 50 µM | 
5 | EELLKAVRLIKLLYQ-NH2 [Sample 8, EELLKAVRLIKLLYQ] | 25 µM | 
6 | ENLLKAIRLIKFLYQ-NH2 [Sample 14, ENLLKAIRLIKFLYQ] | 6.25 µM | 
7 | IRLIKFLYQ-NH2 [Sample 5, IRLIKFLYQ] | 25 µM | 
8 | KTKEGVKT (KTKEGVKT-NH2) [Comparative Sample 1, reference compound] | No Activity | no antimicrobial activity was detected
9 | RELLTAVRIIKILYQ-NH2 [Sample 12, RELLTAVRIIKILYQ] | 25 µM | 
10 | RLIKLLYQ-NH2 [Sample 6, RLIKLLYQ] | 25 µM | 
11 | RLIKLLYQRLIKLLYQ-NH2 [Sample 7, RLIKLLYQ RLIKLLYQ] | 6.25 µM | 
12 | RRAAQAVRLIKLLYQ-NH2 [Sample 11, RRAAQAVRLIKLLYQ] | 6.25 µM | 
13 | VRFIKFLYQ-NH2 [Sample 3, VRFIKFLYQ] | 25 µM | 
14 | VRLIKFLYQ-NH2 [Sample 2, VRLIKFLYQ] | 12.5 µM | 
